# What was measured:
# [1] = tested on: Human ovarian cancer cell strain OVCAR-8; assay: MTT assay, inhibition of tumor cell growth in vitro, 72 h; format: cell-based; conditions: Homo sapiens, OVCAR-8, MTT, read-out: Antitumor proliferative activities of tumor cell (IC50, μM) OVCAR-8
# Procedure: (§1) First, inhibitory activity on tumor proliferation in vitro is determined and the structure activity relationship is preliminarily studied, in which different solid tumor cell strains are selected for determining the antitumor activities in vitro of the synthesized compounds.
# (§2) Cell strains: Human ovarian cancer cell strain (OVCAR8), colon adenocarcinoma cell strain (HCT-116)
# Medium: OVCAR8: RPMI 1640+Fetal Bovine Serum
# (§3) Preparing method of medicines: Dissolving the medicine in DMSO to make a 50 mM stock solution, and diluting it according to a certain ratio to obtain 5 different concentrations.
# (§4) Two selected tumor cells OVCAR8 and HCT-116 are incubated at 37° C. in a 5% CO2 incubator, which are subcultured when cells grow up to a density of 70˜90% (adherent cells are subcultured after digesting by Duck's EDTA) for later experiments.
# (§5) Compounds are dissolved and diluted by dimethyl sulfoxide (DMSO), and tumor cells OVCAR8 and HCT-116 are seeded in a 96-well plate at a density of 4000 cells/200 μl/well, 1 μl of the compounds are added to each well with the final concentration of 50 μM, 10 μM, 2 μM, 0.4 μM and 0.08 μM, which is incubated for 72 h at 37° C. in a 5% CO2 incubator with DMSO (1%) as blank control.
# (§6) The calculating formula of cell inhibitory rate is: cell inhibitory rate %=(the OD value of the control group−the OD value of the medication group)/the OD value of the control group×100%, the half maximal inhibitory concentration (IC50) is obtained by Bliss method.
# Akt1 = molecular target: T1, Akt1 (Homo sapiens, UniProt P31749); assay: AKT1/PKBα KinEASE FP Fluorescein Green Assay (fluorescence polarization kinase kit); format: biochemical; conditions: 1 h reaction, read-out: Inhibitory activities against Akt1 (IC50)
# T1 construct: purchased 32-021
# T1 sequence (P31749 whole entry): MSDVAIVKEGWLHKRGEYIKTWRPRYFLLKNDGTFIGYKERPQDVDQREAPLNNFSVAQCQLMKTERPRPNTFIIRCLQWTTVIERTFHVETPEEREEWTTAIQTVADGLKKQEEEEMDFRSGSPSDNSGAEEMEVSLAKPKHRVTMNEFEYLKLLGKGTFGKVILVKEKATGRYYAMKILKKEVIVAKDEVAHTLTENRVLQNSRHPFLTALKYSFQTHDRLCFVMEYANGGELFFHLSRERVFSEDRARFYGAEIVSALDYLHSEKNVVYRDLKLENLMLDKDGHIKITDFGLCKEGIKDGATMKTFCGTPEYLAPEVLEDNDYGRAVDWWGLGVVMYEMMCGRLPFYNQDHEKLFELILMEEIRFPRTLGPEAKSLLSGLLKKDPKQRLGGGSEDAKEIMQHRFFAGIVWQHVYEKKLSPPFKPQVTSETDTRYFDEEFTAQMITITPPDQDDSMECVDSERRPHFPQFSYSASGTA
# Procedure: Second, method for determining the inhibitory activities of substituted nitrogen-containing heterocyclic derivatives in the present invention against Akt1 enzyme:
# The inhibitory activities of compounds against AKT1/PKBα are determined by using AKT1/PKBα KinEASE™ FP Fluorescein Green Assay (Green fluorescence detection system of Kinase).
# Principle adopted by the fluorescence polarization detection of protein kinase B is a competitive reaction: the phosphorylated tracers labeled with fluorescence will compete with unlabeled phosphorylated products produced by reacting with protein kinase B to combine anti-serine antibodies. […] However, in the reaction mixture containing phosphorylated products, fewer tracers will combine with antibodies (fluorescent tracers are replaced from the antibodies), and signals sent our occur depolarizing. Therefore, the change of polarization is directly related to the activity of protein kinase B in the reaction.
# Each of 0.25 μl of compounds with a concentration of 50 μM and the positive control are added to a 384-well plate at room temperature, and each sample is provided with three parallel wells, and then 10 μl of STK Substrate 3 Working Solution, 5 μl of AKT1/PKBα Working Solution, 10 μl of ATP Working Solution are added to each sample respectively, the mixtures are slightly vibrated and shaked for a few minutes. Reaction is carried out just after the adding 10 μl of ATP Working Solution, from this time, reacting for 1 h. After 1 h, 5 μl of STK Stop Mix and 5 μl of STK Antibody Mix are added to each sample respectively to stop the reaction. The samples are maintained for 4 h at room temperature after adding is completed, the polarization values of samples are determined by fluorescence polarization of Microplate Reader (Detection of the signals is valid within 24 h), the inhibitory rate of compounds against the enzyme is calculated by polarization value, and thereby IC50 is calculated.
# Experiment is set up four control groups at the same time, which are Buffer Control Wells, Tracer Control Wells, No Enzyme Wells and blank control of dimethyl sulfoxide, respectively. Thus obtained data are used to calculate the inhibitory rate (the preparation methods of above various solution required for determining the activities of compounds against enzyme refer to the specification of the kit of AKT1/PKBα KinEASE™ FP Fluorescein Green Assay Catalog #32-021).
# [2] = tested on: human colon cancer cell strain HCT-116; assay: MTT assay, inhibition of tumor cell growth in vitro, 72 h; format: cell-based; conditions: Homo sapiens, HCT-116, MTT, read-out: Antitumor proliferative activities of tumor cell (IC50, μM) HCT-116 (converted)
# Procedure: as §1, §2
# HCT-116: RPMI 1640+Fetal Bovine Serum
# as §3, §4, §5, §6
Structure (SMILES),IC50 [1] [µM],IC50 (Akt1) [nM],IC50 [2] [µM]
"CC(O)c1cnn(C)c1-c1ccc(C(=O)N[C@@H]2CNCC[C@H]2c2cccc(F)c2)s1 (stereo partly drawn) [Compound 143, N-((3S, 4S)-4-(3-fluorophenyl)piperidin-3-yl)-5-(4-(1-hydroxyethyl)-1-methyl-1H-pyrazol-5-yl)thiophene-2-formamide]",0.04,0.7,0.08
"CN(C)CCC1C[C@@H](c2ccc(Cl)c(Cl)c2)[C@H](NC(=O)c2cc(-c3c(Cl)cnn3C)c(Cl)o2)CN1 (stereo partly drawn) [Compound 107, 5-chloro-4-(4-chloro-1-methyl-1H-pyrazol-5-yl)-N-((3S,4S)-4-(3,4-dichlorophenyl)-6-(2-(dimethylamino)ethyl)piperidin-3-yl)furan-2-formamide]",1.01,14,1.08
"Cc1cnn(C)c1-c1cnc(C(=O)N[C@H]2CNC[C@@H]2c2ccc(C(F)(F)F)cc2)cc1F (racemic) [Compound 71, 4-fluoro-5-(1,4-dimethyl-1H-pyrazol-5-yl)-N-(3,4-trans-4-(4-trifluoromethylphenyl)pyrrolidin-3-yl)pyridinyl-2-formamide]",2.61,116,11.1
"Cn1ncc(Cl)c1-c1cc(C(=O)N[C@@H]2CNC(CCNS(C)(=O)=O)C[C@H]2c2ccc(F)c(F)c2)oc1Cl (stereo partly drawn) [Compound 127, 5-chloro-4-(4-chloro-1-methyl-1H-pyrazol-5-yl)-N-((3S,4S)-4-(3,4-difluorophenyl)-6-(2-(methylsulfonamido)ethyl)piperidin-3-yl)furan-2-formamide]",0.67,0.3,0.89
"CC(=O)OCCC1C[C@@H](c2ccc(F)c(F)c2)[C@H](NC(=O)c2cc(-c3c(Cl)cnn3C)c(Cl)o2)CN1 (stereo partly drawn) [Compound 131, 2-((4S,5S)-5-(5-chloro-4-(4-chloro-1-methyl-1H-pyrazol-5-yl)furan-2-formamido)-4-(3,4-difluorophenyl)piperidin-2-yl)ethylacetate]",4.69,0.8,0.92
"Cn1ncc(CO)c1-c1ccc(C(=O)N[C@@H]2CNCC[C@H]2c2cccc(F)c2)s1 [Compound 141, N-((3S, 4S)-4-(3-fluorophenyl)piperidin-3-yl)-5-(4-(hydroxylmethyl)-1-methyl-1H-pyrazol-5-yl)thiophene-2-formamide]",1.05,12,6.56
"Cn1ncc(Cl)c1-c1cc(C(=O)N[C@@H]2CNC(CCO)C[C@H]2c2ccc(Cl)c(Cl)c2)oc1Cl (stereo partly drawn) [Compound 113, 5-chloro-4-(4-chloro-1-methyl-1H-pyrazol-5-yl)-N-((3S,4S)-4-(3,4-dichlorophenyl)-6-(2-hydroxyethyl)piperidin-3-yl)furan-2-formamide]",0.14,3,1.72
"Cn1ncc(Cl)c1-c1ccc(C(=O)N[C@@H]2CNCC[C@H]2c2ccc(Cl)cc2)c(C(F)(F)F)c1 [Compound 80, 4-(4-chloro-1-methyl-1H-pyrazol-5-yl)-N-((3S,4S)-4-(4-chlorophenyl)piperidin-3-yl)-2-(trifluoromethyl)benzamide]",0.94,1,2.51
"C=CCC1C[C@@H](c2ccc(Cl)c(Cl)c2)[C@H](NC(=O)c2cc(-c3c(Cl)cnn3C)c(Cl)o2)CN1 (stereo partly drawn) [Compound 106, N-((3S,4S)-6-allyl-4-(3,4-dichlorophenyl)piperidin-3-yl)-5-chloro-4-(4-chloro-1-methyl-1H-pyrazol-5-yl)furan-2-formamide]",1.02,2,2.51
"Cn1ncc(Cl)c1-c1csc(C(=O)N[C@H]2CNCC[C@@H]2c2ccc(Cl)cc2)c1 (racemic) [Compound 35, 4-(4-chloro-1-methyl-1H-pyrazol-5-yl)-N-(3,4-trans-4-(4-chlorphenyl)piperidin-3-yl)thiophene-2-formamide]",4.61,120,11.5
"Cc1cnn(C)c1-c1cnc(C(=O)N[C@H]2CNC[C@@H]2c2ccc(F)c(F)c2)cc1F (racemic) [Compound 70, 4-fluoro-5-(1,4-dimethyl-1H-pyrazol-5-yl)-N-(3,4-trans-4-(3,4-difluorophenyl)pyrrolidin-3-yl)pyridinyl-2-formamide]",2.69,87,10.3
"Cn1ncc(Cl)c1-c1cc(C(=O)N[C@@H]2CNC(CC(=O)NCCO)C[C@H]2c2ccc(Cl)c(Cl)c2)oc1Cl (stereo partly drawn) [Compound 125, 5-chloro-4-(4-chloro-1-methyl-1H-pyrazol-5-yl)-N-((3S,4S)-4-(3,4-dichlorophenyl)-6-(2-((2-hydroxyethyl)amido)-2-oxoethyl)piperidin-3-yl)furan-2-formamide]",0.12,0.1,1.25
"Cn1ncc(Cl)c1-c1ccc(C(=O)N[C@@H]2CNCC[C@H]2c2cccc(F)c2)cc1N [Compound 79, 3-amido-4-(4-chloro-1-methyl-1H-pyrazol-5-yl)-N-((3S,4S)-4-(3-fluorophenyl)piperidin-3-yl)benzamide]",3.77,19,4.08
"Cn1ncc(Cl)c1-c1cc(C(=O)N[C@H]2CNCC[C@@H]2c2ccc(Cl)c(Cl)c2)oc1Cl [Compound 39, 5-chloro-4-(4-chloro-1-methyl-1H-pyrazol-5-yl)-N-((3R,4R)-4-(3,4-dichlorophenyl)piperidin-3-yl)furan-2-formamide]",14.3,58,3.45
"CCc1cnn(C)c1-c1cc(C(=O)N[C@H]2CNCC[C@@H]2c2ccc(Cl)cc2)nc(C)n1 (racemic) [Compound 47, 2-methyl-6-(1-methyl-4-ethyl-1H-pyrazol-5-yl)-N-(3,4-trans-4-(4-chlorophenyl)piperidin-3-yl)pyrimidine-4-formamide]",5.57,216,3.11
"Cn1ncc(Cl)c1-c1cc(C(=O)N[C@H]2CNC[C@@H]2c2ccc(C(F)(F)F)cc2)oc1Cl (racemic) [Compound 69, 5-chloro-4-(4-chloro-1-methyl-1H-pyrazol-5-yl)-N-(3,4-trans-4-(4-trifluoromethylphenyl)pyrrolidin-3-yl)furan-2-formamide]",24.3,323,3.04
"Cn1ncc(Cl)c1-c1cc(C(=O)N[C@@H]2CNC(CCCO)C[C@H]2c2ccc(Cl)c(Cl)c2)oc1Cl (stereo partly drawn) [Compound 111, 5-chloro-4-(4-chloro-1-methyl-1H-pyrazol-5-yl)-N-((3S,4S)-4-(3,4-dichlorophenyl)-6-(3-hydroxypropyl)piperidin-3-yl)furan-2-formamide]",0.07,4,0.49
"Cn1ncc(Br)c1-c1csc(C(=O)N[C@H]2CNCC[C@@H]2c2ccc(F)c(F)c2)c1 [Compound 41, 4-(4-bromo-1-methyl-1H-pyrazol-5-yl)-N-((3R,4R)-4-(3,4-difluorophenyl)piperidin-3-yl)thiophene-2-formamide]",9.43,452,4.06
"Cc1cccc([C@H]2CCNC[C@@H]2NC(=O)c2cc(Cl)c(-c3ncnn3C)o2)c1 (racemic) [Compound 7, 4-chloro-5-(1-methyl-1H-1,2,4-triazol-5-yl)-N-(3,4-trans-4-(3-methylphenyl)piperidin-3-yl)furan-2-formamide]",3.88,62,8.3

# From US10233180B2, “Substituted nitrogen-containing heterocyclic derivatives, pharmaceutical compositions comprising the same and applications of antitumor thereof” (ZHEJIANG UNIVERSITY, priority 2014, dated 2019)
